Measured values: article PMC3708395, “Hepatoprotective and Antioxidant Effects of Saponarin, Isolated from Gypsophila trichotoma Wend. on Paracetamol-Induced Liver Damage in Rats” (BioMed Research International, 2013)
Where “and” joins values, the source holds several entries; their conditions need not be identical. Identical values can stand only once. Entries after “also recorded” stand apart in the source; their conditions may differ.

How the values were obtained:
Male Wistar rats [1] = assay: Lipid peroxidation (MDA) in rat liver homogenate, in vivo paracetamol model; conditions: for MDA: rat liver homogenate
Experimental: The animals were divided into six groups (n = 6). […] The animals in all groups were sacrificed on the eighth day of the beginning of the experiment. Livers were taken for assessment of biochemical parameters. For all following experiments the excised livers were washed out with cold saline solution (0.9% NaCl), blotted dray, weighed, and homogenized with appropriate buffers. Lipid peroxidation was determined by measuring the rate of production of thiobarbituric acid reactive substances (TBARS) (expressed as malondialdehyde (MDA) equivalents) described by Polizio and Peña with slight modifications. Briefly one volume of homogenate was mixed with 1 mL 25% trichloroacetic acid (TCA) and 1 mL 0.67% thiobarbituric acid (TBA). Samples were then mixed thoroughly, heated for 20 min in a boiling water bath, cooled and centrifuged at 4000 rpm for 20 min. The absorbance of supernatant was measured at 535 nm against a blank that contained all the reagents except the tissue homogenate. MDA concentration was calculated using a molar extinction coefficient of 1.56 × 10^5 M^−1 cm^−1 and expressed in nmol/g wet tissue.

Male Wistar rats [2] = assay: GSH level in rat liver homogenate, in vivo paracetamol model; conditions: for GSH: rat liver homogenate
Experimental: The animals were divided into six groups (n = 6). […] The animals in all groups were sacrificed on the eighth day of the beginning of the experiment. Livers were taken for assessment of biochemical parameters. For all following experiments the excised livers were washed out with cold saline solution (0.9% NaCl), blotted dray, weighed, and homogenized with appropriate buffers. GSH was assessed by measuring nonprotein sulfhydryls after precipitation of proteins with TCA, using the method described by Bump et al.. Briefly, tissues were homogenized in 5% trichloroacetic acid (TCA) and centrifugated for 20 min at 4 000 ×g. […] The absorbance was determined at 412 nm and the results expressed as nmol/g wet tissue.

Male Wistar rats [3] = assay: Antioxidant enzyme activities (SOD, CAT, GPx, GR, GST) in rat liver homogenate, in vivo paracetamol model; conditions: for CAT / GPx / GR / GST / SOD: rat liver homogenate
Text: The animals were divided into six groups (n = 6). […] The animals in all groups were sacrificed on the eighth day of the beginning of the experiment. Livers were taken for assessment of biochemical parameters. For all following experiments the excised livers were washed out with cold saline solution (0.9% NaCl), blotted dray, weighed, and homogenized with appropriate buffers. The livers were rinsed in ice-cold physiological saline and minced with scissors. […] Catalase (CAT) activity was determined by measuring the decrease in absorbance at 240 nm. […] SOD activity was expressed as nmol of epinephrine that are prevented from autoxidation after addition of the sample. […] The rate of disappearance of NADPH with time was determined by monitoring absorbance at 340 nm. Results are expressed in nmol/mg. Glutathione reductase activity (GR) was measured according to the method of Pinto et al. by following NADPH oxidation spectrophotometrically at 340 nm and using an extinction coefficient of 6.22 mM^−1 cm^−1. […] The enzyme activity is expressed as nmol of CDNB-GSH conjugate formed/min/mg protein.

Male Wistar rats [4] = assay: Phase I of biotransformation: cytochrome P450, EMND and AH in rat liver microsomes after in vivo treatment
Experimental: The animals were divided into six groups (n = 6). […] The animals in all groups were sacrificed on the eighth day of the beginning of the experiment. Livers were taken for assessment of biochemical parameters. For all following experiments the excised livers were washed out with cold saline solution (0.9% NaCl), blotted dray, weighed, and homogenized with appropriate buffers. The excised, perfused, and minced livers were homogenized with 3 mL of 1.17% KCl than centrifugated at 10 000 ×g for 30 min. The supernatant fractions were further centrifugated at 105 000 ×g for 60 min. The resulting microsomal pellets were stored at −20°C until assayed. At the day of assay the microsomal pellets were resuspended and diluted with phosphate buffer EDTA (pH = 7.4). Liver protein concentration was measured, using the method of Lowry and was adjusted to 4 mg/mL. (1) Assessment of Cytochrome P450 Quantity. Cytochrome P450 was quantified spectrophotometrically as a complex with CO at 450 nm and expressed as nmol/mg^−1 protein [28]. […] The method used 4-hydroxylation of aniline to 4-aminophenol that is chemically converted to a phenol-indophenol complex with an absorption maximum at 630 nm. Enzyme activity was expressed as nmol/min/mg. […] The enzyme activity was evaluated by the formation of formaldehyde, trapped in the solution as semicarbazone, and measured by the colorimetric procedure of Nash, at 415 nm. Enzyme activity was expressed as nmol/min/mg.

Male Wistar rats [5] = assay: Histopathological study of liver; format: in vivo, rat
Text: The animals were divided into six groups (n = 6). […] The animals in all groups were sacrificed on the eighth day of the beginning of the experiment. Livers were taken for assessment of biochemical parameters. For all following experiments the excised livers were washed out with cold saline solution (0.9% NaCl), blotted dray, weighed, and homogenized with appropriate buffers. For light microscopic evaluation, liver tissues were fixed in 10% buffered formalin and then thin sections (4 μm) were subsequently stained with hematoxylin/eosin for general histological features determination. Sections were studied under light microscope Leica DM 500.

[6] = parameters: method as in earlier work; conditions: concentration range 0.5 mg/mL; cited from earlier work
isolated rat hepatocytes = assay: Paracetamol-induced model of toxicity in isolated rat hepatocytes; conditions: 30 min preincubation with saponarin 60–0.006 μg/mL, then paracetamol 100 μmol for one hour; concentration-dependent
Experimental: The effect of saponarin was compared to those of silymarin (50–0.005 μg/mL). The following parameters were measured to assess the functional status of hepatocytes: cell viability, lactate dehydrogenase (LDH) activity, reduced glutathione (GSH) levels, and malondialdehyde (MDA) quantity. Cell viability was assessed by Trypan blue exclusion method [19]. The dye was used at a final concentration of 0.05% and cells were counted under light microscope (×100). At the end of incubation, the cells were recovered via centrifugation at 400 ×g at 4°C. The supernatant was used for LDH and MDA assessment as described by Bergmeyer et al. [21] and Fau at al. [19], respectively. GSH measurement following the method used by Fau at al. [19] was assessed in the sediment.

[7] = saponarin 80 mg/kg bw/day p.o. 7 days, alone
[8] = saponarin 80 mg/kg p.o. 7 days pretreatment then paracetamol 600 mg/kg i.p.
[9] = saponarin pretreatment seven days then single i.p. paracetamol, compared to paracetamol alone
[10] = rat liver microsomes, saponarin 80 mg/kg bw/day p.o. 7 days, alone
[11] = saponarin alone 80 mg/kg p.o. 7 days, vs control
[12] = paracetamol 600 mg/kg i.p. alone
[13] = paracetamol 600 mg/kg i.p. alone, compared to control animals

apigenin 6-C-glucosyl-7-O-glucoside [saponarin]
MDA (Male Wistar rats [1]; [7]): 0.635 ± 0.07 nmol/g protein | MDA content relative to control level (Male Wistar rats [1]; [8]): restored to the control level | reduction of MDA in rat liver homogenate (Male Wistar rats [1]; saponarin 80 mg/kg p.o. 7 days pretreatment then paracetamol 600 mg/kg i.p., compared to PC-treated group): 18% | GSH (Male Wistar rats [2]; [7]): 5.14 ± 0.31 nmol/g protein | GSH levels compared to the paracetamol-only group (Male Wistar rats [2]; [8]): significantly higher levels of GSH | CAT (Male Wistar rats [3]; [7]): 110.4 ± 16 μmol H2O2/min/mg protein | GPx (Male Wistar rats [3]; [7]): 0.125 ± 0.02 nmol/min/mg protein | GR (Male Wistar rats [3]; [7]): 0.207 ± 0.03 nmol/min/mg protein | GST (Male Wistar rats [3]; [7]): 0.208 ± 0.02 nmol CDNB-GSH conjugate formed/min/mg protein | SOD (Male Wistar rats [3]; [7]): 0.158 ± 0.015 nmol/min/mg protein | increase in GPx activity (Male Wistar rats [3]; [9]): 21% | increase in GR activity (Male Wistar rats [3]; [9]): 39% | increase in GST activity (Male Wistar rats [3]; [9]): 21% | increase in SOD activity (Male Wistar rats [3]; [9]): 24% | AH activity (Male Wistar rats [4]; [10]): 0.047 ± 0.004 nmol/mg protein | Cytochrome P450 (Male Wistar rats [4]; [10]): 0.244 ± 0.05 nmol/mg protein | EMND activity (Male Wistar rats [4]; [10]): 0.371 ± 0.011 nmol/mg protein | decrease in AH activity (Male Wistar rats [4]; [11]): 37% | decrease in EMND activity (Male Wistar rats [4]; [11]): 24% | decrease in total P450 quantity (Male Wistar rats [4]; [11]): 25% | liver histopathology (Male Wistar rats [5]; rats pretreated with saponarin (80 mg/kg p.o. 7 days) then challenged with paracetamol 600 mg/kg i.p.): lower intensity of mononuclear accumulations and the presence of single cells showing intracellular oedema; also recorded: significant improvement of hepatocellular architecture | inhibition of DPPH radical [6]: 88.8% | protection against paracetamol-induced injury (cell viability, LDH activity, MDA quantity, GSH levels) (isolated rat hepatocytes): prevented the liver injury

CC(=O)Nc1ccc(O)cc1 [paracetamol]
increase of MDA level in rat liver homogenate (Male Wistar rats [1]; paracetamol 600 mg/kg i.p. alone, vs control animals): 30% | MDA (Male Wistar rats [1]; [12]): 0.854 ± 0.04 nmol/g protein | reduction in GSH levels in rat liver homogenate (Male Wistar rats [2]; [13]): 83% | GSH (Male Wistar rats [2]; [12]): 0.96 ± 0.05 nmol/g protein | decrease in CAT activity (Male Wistar rats [3]; [13]): 27% | decrease in GPx activity (Male Wistar rats [3]; [13]): 31-32% | decrease in GR activity (Male Wistar rats [3]; [13]): 38% | decrease in GST activity (Male Wistar rats [3]; [13]): 31% and 31-32% | CAT (Male Wistar rats [3]; [12]): 88.3 ± 10 μmol H2O2/min/mg protein | GPx (Male Wistar rats [3]; [12]): 0.089 ± 0.01 nmol/min/mg protein | GR (Male Wistar rats [3]; [12]): 0.137 ± 0.02 nmol/min/mg protein | GST (Male Wistar rats [3]; [12]): 0.160 ± 0.01 nmol CDNB-GSH conjugate formed/min/mg protein | SOD (Male Wistar rats [3]; [12]): 0.114 ± 0.012 nmol/min/mg protein | liver histopathology (Male Wistar rats [5]; paracetamol 600 mg/kg i.p. alone, hematoxylin/eosin, light microscopy): treatment-related changes associated with hepatotoxicity; also recorded: centriacinar and microvesicular accumulation of fats
